Laboratory results: patent US8589175B2, “Optimization and individualization of medication selection and dosing” (Children's Hospital Medical Center, priority 2005, dated 2013)

How the values were obtained:
CYP2C9 = assay: dosing recommendation per CYP2C9 metabolizer subgroup as percentage of usual population dose (Equations 4-6); design: species or system human; details: for 1 al (effect of 1 non-functional allele) / 2 al (effect of 2 non-functional alleles) / 2 al/1 al: CYP2C9; for UM (%) dosing recommendation: CYP2C9, head prints UM; for UM (%) dosing recommendation / IM (%) dosing recommendation / PM (%) dosing recommendation: percent of usual dose; for 2 al/1 al: ratio of the two effects; for IM (%) dosing recommendation: CYP2C9 intermediate metabolizers; for PM (%) dosing recommendation: CYP2C9 poor metabolizers
Excerpt: Determining “Minimal Dose Adjustment Units”
2C9 has 2 MDA units per non-functional allele.

CYP2D6 = details: human
CYP2C19 = assay: dosing recommendation per CYP2C19 metabolizer subgroup as percentage of usual population dose (Equations 4-6)
Excerpt: Assuming the goal is to maintain the same AUC for all three subpopulations of patients, the following subpopulation dosing relationships hold: DPM=DEM*(AUCEM/AUCPM) OR DPM=DEM*R if R=(AUCEM/AUCPM) (Equation 2) DIM=DEM*(AUCEM/AUCIM) OR DIM=DEM*S if S=(AUCEM/AUCIM) (Equation 3)
By substituting equations 2 and 3 into equation 1, and then rearranging the equation to solve for the percent dose adjustment needed for each subgroup relative to the population dose: DEM(%)=100/(fEM+fIM*S+fPM*R) (Equation 4) DPM(%)=R*DEM (Equation 5) DIM(%)=S*DEM (Equation 6) Equations 4, 5, and 6 show how the dosing for the more homogeneous subgroups is determined and how the dosing results are expressed as a fraction of the clinician's usual heterogeneous whole group dosages. Determining “Minimal Dose Adjustment Units”
Example: The approach in the previous section leads to individualized initial drug dose recommendations for each of the 3 subgroups (extensive, poor and intermediate metabolizers). Each subgroup represents a specific number of functional alleles for the specific DME (extensive metabolizers have 2 functional, intermediate metabolizers have 1 functional and poor metabolizers have 0 functional). The resultant dosing recommendations are expressed as percentages of the clinician's usual starting dose. It is possible to investigate the effect of increasing numbers of non-functional alleles using these new dosing recommendations. For example, if DRX % is the dosing recommendation for subgroup X expressed as a percentage of the clinician's usual starting dose then the following are true: Effect of […] 1 non-functional allele=(DREM %−DRIM %)/DREM % Effect of 2 non-functional allele=(DREM %−DRPM %)/DREM % Below is a spreadsheet (Table 3) that examines this for CYP2D6, CYP2C19 and CYP2C9. […] 2C9 has 2 MDA units per non-functional allele.

[1] = CYP2C19 intermediate metabolizers, percent of usual dose
[2] = CYP2C19 poor metabolizers, percent of usual dose

CCCNC(=O)NS(=O)(=O)c1ccc(Cl)cc1 [Diabinese]
1 al (effect of 1 non-functional allele) (CYP2C9): 0.58
2 al (effect of 2 non-functional alleles) (CYP2C9): 0.83
UM (%) dosing recommendation (CYP2C9): 120%
2 al/1 al (CYP2C9): 1.43
IM (%) dosing recommendation (CYP2C9): 60%
PM (%) dosing recommendation (CYP2C9): 20%

Cc1ccc(-c2cc(C(F)(F)F)nn2-c2ccc(S(N)(=O)=O)cc2)cc1 [Celebrex]
1 al (effect of 1 non-functional allele) (CYP2C9): 0.30
2 al (effect of 2 non-functional alleles) (CYP2C9): 0.65
UM (%) dosing recommendation (CYP2C9): 100%
2 al/1 al (CYP2C9): 2.17
IM (%) dosing recommendation (CYP2C9): 70%
PM (%) dosing recommendation (CYP2C9): 35%

CC(=O)CC(c1ccccc1)c1c(O)c2ccccc2oc1=O (centres unmarked) [Coumadin]
1 al (effect of 1 non-functional allele) (CYP2C9): 0.62
2 al (effect of 2 non-functional alleles) (CYP2C9): 0.85
UM (%) dosing recommendation (CYP2C9): 130%
2 al/1 al (CYP2C9): 1.38
IM (%) dosing recommendation (CYP2C9): 50%
PM (%) dosing recommendation (CYP2C9): 20%

CCC1=C(C)CN(C(=O)NCCc2ccc(S(=O)(=O)NC(=O)N[C@H]3CC[C@H](C)CC3)cc2)C1=O [Amaryl]
1 al (effect of 1 non-functional allele) (CYP2C9): 0.42
2 al (effect of 2 non-functional alleles) (CYP2C9): 0.83
UM (%) dosing recommendation (CYP2C9): 120%
2 al/1 al (CYP2C9): 2.00
IM (%) dosing recommendation (CYP2C9): 70%
PM (%) dosing recommendation (CYP2C9): 20%

CC(C)n1c(/C=C/[C@@H](O)C[C@@H](O)CC(=O)O)c(-c2ccc(F)cc2)c2ccccc21 (racemic) [Lescol]
1 al (effect of 1 non-functional allele) (CYP2C9): 0.20
2 al (effect of 2 non-functional alleles) (CYP2C9): 0.65
UM (%) dosing recommendation (CYP2C9): 100%
2 al/1 al (CYP2C9): 3.25
IM (%) dosing recommendation (CYP2C9): 80%
PM (%) dosing recommendation (CYP2C9): 35%

CN(C)CCC=C1c2ccccc2CCc2ccccc21 [amitryptiline]
1 al (effect of 1 non-functional allele) (CYP2D6): 0.17
2 al (effect of 2 non-functional alleles) (CYP2D6): 0.34
2 al/1 al (CYP2D6): 2.00
EM (%) dosing recommendation (CYP2D6): 111%
IM (%) dosing recommendation (CYP2D6): 92%
PM (%) dosing recommendation (CYP2D6): 73%
UM (%) dosing recommendation (CYP2D6): 130%
1 al (effect of 1 non-functional allele) (CYP2C19; CYP2C19): 0.26
2 al (effect of 2 non-functional alleles) (CYP2C19; CYP2C19): 0.51
UM (%) dosing recommendation (CYP2C19; CYP2C19, head prints UM, percent of usual dose): 109%
2 al/1 al (CYP2C19; CYP2C19, ratio of the two effects): 2.00
IM (%) dosing recommendation (CYP2C19; [1]): 81%
PM (%) dosing recommendation (CYP2C19; [2]): 53%

CN1CCN(C2=Nc3cc(Cl)ccc3Nc3ccccc32)CC1 [clozapine]
1 al (effect of 1 non-functional allele) (CYP2D6): −0.11
2 al (effect of 2 non-functional alleles) (CYP2D6): −0.20
EM (%) dosing recommendation (CYP2D6): 94%
IM (%) dosing recommendation (CYP2D6): 104%
PM (%) dosing recommendation (CYP2D6): 113%
UM (%) dosing recommendation (CYP2D6): 84%
1 al (effect of 1 non-functional allele) (CYP2C19; human): 0.13
2 al (effect of 2 non-functional alleles) (CYP2C19; human): 0.25
2 al/1 al (CYP2C19; human): 2.00
IM (%) dosing recommendation (CYP2C19; human): 91%
PM (%) dosing recommendation (CYP2C19; human): 78%
UM (%) dosing recommendation (CYP2C19; human): 104%

CCCCc1nc(Cl)c(CO)n1Cc1ccc(-c2ccccc2-c2nn[nH]n2)cc1 [Cozaar]
1 al (effect of 1 non-functional allele) (CYP2C9): 0.50
2 al (effect of 2 non-functional alleles) (CYP2C9): 0.80
UM (%) dosing recommendation (CYP2C9): 100%
2 al/1 al (CYP2C9): 1.60
IM (%) dosing recommendation (CYP2C9): 50%
PM (%) dosing recommendation (CYP2C9): 20%

CN(C)CCC=C1c2ccccc2COc2ccccc21 [doxepin]
1 al (effect of 1 non-functional allele) (CYP2D6): 0.35
2 al (effect of 2 non-functional alleles) (CYP2D6): 0.72
EM (%) dosing recommendation (CYP2D6): 127%
IM (%) dosing recommendation (CYP2D6): 82%
PM (%) dosing recommendation (CYP2D6): 36%
UM (%) dosing recommendation (CYP2D6): 173%
1 al (effect of 1 non-functional allele) (CYP2C19; human): 0.13
2 al (effect of 2 non-functional alleles) (CYP2C19; human): 0.54
IM (%) dosing recommendation (CYP2C19; human): 91%
PM (%) dosing recommendation (CYP2C19; human): 46%

CNCCC(Oc1ccc(C(F)(F)F)cc1)c1ccccc1 (centres unmarked) [fluoxetine]
1 al (effect of 1 non-functional allele) (CYP2D6): 0.12
2 al (effect of 2 non-functional alleles) (CYP2D6): 0.27
IM (%) dosing recommendation (CYP2D6): 94%
PM (%) dosing recommendation (CYP2D6): 78%
UM (%) dosing recommendation (CYP2D6): 120%
1 al (effect of 1 non-functional allele) (CYP2C19; CYP2C19): 0.20
2 al (effect of 2 non-functional alleles) (CYP2C19; CYP2C19): 0.35
IM (%) dosing recommendation (CYP2C19; [1]): 86%
PM (%) dosing recommendation (CYP2C19; [2]): 70%

CN[C@H]1CC[C@@H](c2ccc(Cl)c(Cl)c2)c2ccccc21 [sertraline]
1 al (effect of 1 non-functional allele) (CYP2D6): 0.00
2 al (effect of 2 non-functional alleles) (CYP2D6): 0.01
EM (%) dosing recommendation (CYP2D6): 100%
IM (%) dosing recommendation (CYP2D6): 100%
PM (%) dosing recommendation (CYP2D6): 99%
UM (%) dosing recommendation (CYP2D6): 100%
1 al (effect of 1 non-functional allele) (CYP2C19; human): 0.14
2 al (effect of 2 non-functional alleles) (CYP2C19; human): 0.29
2 al/1 al (CYP2C19; human): 2.00
IM (%) dosing recommendation (CYP2C19; human): 90%
PM (%) dosing recommendation (CYP2C19; human): 75%
UM (%) dosing recommendation (CYP2C19; human): 105%

O=C1NC(=O)C(c2ccccc2)(c2ccccc2)N1 [Dilantin]
1 al (effect of 1 non-functional allele) (CYP2C9): 0.36
2 al (effect of 2 non-functional alleles) (CYP2C9): 0.64
UM (%) dosing recommendation (CYP2C9): 110%
2 al/1 al (CYP2C9): 1.75
IM (%) dosing recommendation (CYP2C9): 70%
PM (%) dosing recommendation (CYP2C9): 40%
